In US20250003953A1, “Methods and Model Systems for Assessing Therapeutic Properties of Candidate Agents and Related Computer Readable Media and Systems” (The Regents of the University of California, priority 2021, published 2025):

Key:
lipid peroxidation = experiment: Lipid peroxidation live cell probe dose curve and survival kinetics; assay type: cell-based; conditions: dose curves
From the text: FIG. 7B plots gene expression of anti-ferroptotic genes for each cell line in response to increasing ARS1620 dosage. […] Lipid peroxidation and survival kinetics cross over around IC50 in all compounds indicating ARS1620 performs as a ferroptosis inducing agent.
Among this group of genes were FTH1 and FTL, the two components of the Ferritin Complex, which is responsible for sequestration of labile free iron. Using a lipid peroxidation live cell probe, lipid peroxidation—one of the hallmark phenotypes of ferroptosis—was measured in response to ARS-1620 treatment.

[1] = system: H1373 KRAS.G12C mutant line; experiment: Multi-arm combination therapy in-vivo mouse study; conditions: in combination with ARS1620; for synergy in tumor growth reduction: compared to null model of independence
Protocol: Bliss drug synergy is plotted and several compounds show significant drug synergy with multiple KRAS.G12C inhibitors.
Using the GENEVA dataset of ARS-1620 in a fourteen day drug treatment timeline in which drug resistance developed, gene expression indicators of resistance mechanisms were obtained (FIG. 4A). […] The strongest GENEVA prediction, mTOR resistance, was tested in a multi-arm in vivo mouse study and significant in vivo Bliss drug synergy and tumor reduction over time was found (FIG. 4C,D).
The GENEVA datasets were compared where GENEVA pools were drugged with the KRAS.G12C inhibitor ARS1620, conducted both in vitro and in vivo. Specifically, the in vitro data were compared against the in vivo data to look for differences and similarities attributable to the context of the model systems used. […] As a validation study, a combination therapy multi-arm in vivo mouse study was designed to test the efficacy of an EMT inhibitor, Galunisertib in combination with ARS1620.

[2] = system: panel of G12C and non G12C lines pooled in vivo as xenografts; experiment: GENEVA combination therapy study in cell line pools in vivo as xenografts; set-up: species or system mouse; conditions: in combination with ARS1620; for drug synergy from cell cycle active/inactive proportions: G12C lines
Protocol: Treatment conditions include Antimycin, ARS1620, Galunisertib, INK128, DMSO, ARS1620+Antimycin, ARS1620+Galunisertib, ARS1620+INK128. FIG. 8B utilizes GENEVA data from FIG. 8A for synergy calculations performed on cell cycle states in each drug condition singly and in combination estimated for G12C lines across drug conditions.
2 mL of Matrigel Basement Membrane reagent was added to the GENEVA pool prepared by growth rate balancing for a final concentration of 20M/mL. One hundred microliters of this solution was injected into NSG mice in a flank xenograft injection. Twenty-four hours later, mice harboring GENEVA tumors were drugged with the drug compound in a vehicle solution of 5% DMSO, 95% Labrasol. Mice were dosed by oral gavage four fourteen days with five days on, two days off. On the fourteenth day, mice were sacrificed, tumors harvested by homogenization with surgical shears and resuspended in 5 mg/mL Liberase™ Cell Dissociation Reagent in 1:1 DMEM: F12 cell media, DNAse I (10 U/uL). Tumors were incubated in a 37° C. incubator with shaking at 600 RPMs for 45 minutes for enzymatic dissociation and then spun down at 800 g for 5 minutes at 4° C. Dissociated tumors were resuspended in 100 uL 1×PBS.
A panel of G12C and non G12C lines pooled in vivo as xenografts was utilized to conduct combination therapy studies comparing ARS1620 with and without Galunisertib, INK128, and Antimycin for a total of eight different treatment conditions; these compounds were taken from our combination therapy discoveries and mechanistic understanding of mitochondrial action of ARS1620 (FIG. 8A).

Compound | cross-over of survival and normalized lipid peroxidation curves (lipid peroxidation) | synergy in tumor growth reduction [1] | suppression of tumor growth (relative tumor volume) ([1]; n=4-5 mice per condition) | gene-level synergy on mitochondrial reads (linear model) [2] | drug synergy from cell cycle active/inactive proportions [2]
CN(C)c1nc(N(C)C)nc(N(C)C)n1 [Altretamine] | crossed over around the IC50 survival value | – | – | – | –
Cc1cccc(-c2nn3c(c2-c2ccnc4ccc(C(N)=O)cc24)CCC3)n1 [Galunisertib] | – | reduce growth synergistically | extremely effective in suppressing tumor growth | further increase the synergistic decrease in mitochondrial reads | relative in vivo synergy
CC(C)n1nc(-c2ccc3oc(N)nc3c2)c2c(N)ncnc21 [INK128] | – | synergistically reduce tumor growth in-vivo | – | further increase the synergistic decrease in mitochondrial reads | relative in vivo synergy
antimycin | – | – | – | – | antagonistic effect
